We go through 17 compounds from US11214538B2, “Farnesoid X receptor agonists and uses thereof” (Metacrine, Inc., priority 2015, dated 2022).

One may read the pEC50 as −log10 of the EC50, conventionally taken in molar units. Low values mean a large EC50, high ones a small EC50.

pEC50: −log10 of the molar value. Bounds are passed on as bounds.

For the assay, the target named is T1, hFXR (Homo sapiens, UniProt Q96RI1).
T1 construct: expressed in transfected cells; host or cells: CV-1 cells
T1 sequence (Q96RI1 1-486): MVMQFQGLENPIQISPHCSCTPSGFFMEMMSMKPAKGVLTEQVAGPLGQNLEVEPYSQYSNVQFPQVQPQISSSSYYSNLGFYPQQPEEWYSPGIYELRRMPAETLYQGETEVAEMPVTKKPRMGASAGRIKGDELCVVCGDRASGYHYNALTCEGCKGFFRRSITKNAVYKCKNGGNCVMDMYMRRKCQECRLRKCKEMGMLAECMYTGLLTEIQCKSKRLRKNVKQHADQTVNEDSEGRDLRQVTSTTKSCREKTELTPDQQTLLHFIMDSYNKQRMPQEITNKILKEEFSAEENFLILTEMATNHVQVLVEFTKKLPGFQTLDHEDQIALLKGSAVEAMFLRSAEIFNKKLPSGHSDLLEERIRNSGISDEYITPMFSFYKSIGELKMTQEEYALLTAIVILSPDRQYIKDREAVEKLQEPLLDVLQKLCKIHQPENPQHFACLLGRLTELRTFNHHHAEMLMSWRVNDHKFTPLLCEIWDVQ
T1 sequence (P19793 1-462 partner): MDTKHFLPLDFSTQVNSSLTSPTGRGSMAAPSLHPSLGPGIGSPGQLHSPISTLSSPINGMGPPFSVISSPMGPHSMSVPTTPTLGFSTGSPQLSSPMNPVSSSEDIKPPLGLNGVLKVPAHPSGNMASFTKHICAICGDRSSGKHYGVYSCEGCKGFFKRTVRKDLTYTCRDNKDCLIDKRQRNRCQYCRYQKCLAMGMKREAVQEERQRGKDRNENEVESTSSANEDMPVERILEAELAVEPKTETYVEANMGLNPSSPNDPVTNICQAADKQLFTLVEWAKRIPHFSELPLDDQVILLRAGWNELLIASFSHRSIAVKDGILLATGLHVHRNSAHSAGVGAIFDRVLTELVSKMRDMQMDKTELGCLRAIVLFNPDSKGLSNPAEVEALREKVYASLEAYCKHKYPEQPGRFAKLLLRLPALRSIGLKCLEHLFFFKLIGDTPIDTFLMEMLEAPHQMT
Put plainly: In Vitro FXR Assay (TK), luciferase reporter in transfected CV-1 cells. As to conditions: CV-1 cells transfected with hFXR, hRXR, TK-ECRE-luc; 18 hrs incubation; luminescence; compounds with a maximum efficacy of <25% of the Fexaramine control classified as '+'. It is filed as cell-based. On the procedure:
Example B-2: In Vitro FXR Assay (TK)
CV-1 cells were seeded at a density of 2,000,000 cells in a T175 flask with DMEM+10% charcoal double-stripped FBS and incubated at 37° C. in 5% CO2 for 18 h (O/N).
After 18 h of incubation, the medium in the T175 flask was changed with fresh DMEM+10% charcoal super-stripped serum. In a polypropylene tube, 2500 μL OptiMEM (Life Technologies, Cat #31985-062) was combined with expression plasmids for hFXR, hRXR, TK-ECRE-luc and pCMX-YFP. The tube was then briefly vortexed and incubated at room temperature for 5 minutes. Transfection reagent (X-tremeGENE HP from Roche, Cat #06 366 236 001) was added to the OptiMEM/plasmid mixture vortexed and incubated at room temperature for 20 minutes. Following incubation, the transfection reagent/DNA mixture complex was added to cells in the T175 flask and the cells were incubated at 37° C. in 5% CO2 for 18 h (O/N).
Compounds were serially diluted in DMSO and added to transfected CV-1 cells. The cells were then incubated for 18 hrs. The next day cells were lysed and examined for luminescence.
On the technique in general: Reporter assays use an easily measured gene product as a stand-in for the process of interest.
Turning to `COc1cc(-c2cccc(N(Cc3ccc(-c4ccc(N(C)C)cc4)cc3)C(=O)C3CCCCC3)c2)sn1` [Compound 43, N-((4′-(Dimethylamino)-[1,1′-biphenyl]-4-yl)methyl)-N-(3-(3-methoxyisothiazol-5-yl)phenyl)cyclohexanecarboxamide], the pEC50 was ≥ 5.52.
`COCC1CCN(c2cccc(N(C[C@H]3CC[C@H](c4ccc(OC)c(C)c4)CC3)C(=O)[C@H]3CC[C@H](O)CC3)c2)C1` (stereo partly drawn) [Compound 48, trans-4-Hydroxy-N-((trans-4-(4-methoxy-3-methylphenyl)cyclohexyl)methyl)-N-(3-(3-(methoxymethyl)pyrrolidin-1-yl)phenyl)cyclohexanecarboxamide] gave a negative logarithm of the EC50 (pEC50) of 5.00 to 5.52.
`CN(C)c1ccc(-c2ccc(CN(C(=O)C3CCCCC3)c3cccc(/C=C/c4ccncc4)c3)cc2)cc1` [Compound 28, (E)-N-((4′-(Dimethylamino)-[1,1′-biphenyl]-4-yl)methyl)-N-(3-(2-(pyridin-4-yl)vinyl)phenyl)cyclohexanecarboxamide] had a negative logarithm of the EC50 (pEC50) of 5.00 to 5.52.
For the compound `COCC1CN(c2cccc(N(C[C@H]3CC[C@H](c4ccc(OC)c(C)c4)CC3)C(=O)[C@H]3CC[C@H](O)CC3)c2)C1` [Compound 46, trans-4-Hydroxy-N-((trans-4-(4-methoxy-3-methylphenyl)cyclohexyl)methyl)-N-(3-(3-(methoxymethyl)azetidin-1-yl)phenyl)cyclohexanecarboxamide], the negative-log EC50 (pEC50) was ≥ 5.52.
Under `COc1ccc([C@H]2CC[C@H](CN(c3cccc(N4CCC(OC)CC4)c3)C(=O)[C@H]3CC[C@H](O)CC3)CC2)cc1C` [Compound 49, trans-4-Hydroxy-N-((trans-4-(4-methoxy-3-methylphenyl)cyclohexyl)methyl)-N-(3-(4-methoxypiperidin-1-yl)phenyl)cyclohexanecarboxamide] stands ≥ 5.52; under `COc1ccc(-c2cccc(N(Cc3ccc(-c4ccc(N(C)C)cc4)cc3)C(=O)C3CCCCC3)c2)cc1` [Compound 3.1, N-((4′-(Dimethylamino)-[1,1′-biphenyl]-4-yl)methyl)-N-(4′-methoxy-[1,1′-biphenyl]-3-yl)cyclohexanecarboxamide], ≥ 5.52.
On to `COc1ccc([C@H]2CC[C@H](CN(c3cccc(N4CCC(OC)C4)c3)C(=O)[C@H]3CC[C@H](O)CC3)CC2)cc1C` (stereo partly drawn) [Compound 47, trans-4-Hydroxy-N-((trans-4-(4-methoxy-3-methylphenyl)cyclohexyl)methyl)-N-(3-(3-methoxypyrrolidin-1-yl)phenyl)cyclohexanecarboxamide], for which the negative logarithm of the EC50 (pEC50) was 5.00 to 5.52.
Compound `CCc1cncc(-c2cccc(N(Cc3ccc(-c4ccc(N(C)C)cc4)cc3)C(=O)C3CCCCC3)c2)c1` [Compound 33, N-((4′-(Dimethylamino)-[1,1′-biphenyl]-4-yl)methyl)-N-(3-(5-ethylpyridin-3-yl)phenyl)cyclohexanecarboxamide] showed a pEC50 of 5.00 to 5.52.
`CN(C)c1ccc(-c2ccc(CN(C(=O)C3CCCCC3)c3cccc(CCc4ncco4)c3)cc2)cc1` [Compound 22, N-((4′-(Dimethylamino)-[1,1′-biphenyl]-4-yl)methyl)-N-(3-(2-(oxazol-2-yl)ethyl)phenyl)cyclohexanecarboxamide]: the pEC50 was ≥ 5.52.
Consider `COc1ncc(-c2cccc(N(Cc3ccc(-c4ccc(N(C)C)cc4)cc3)C(=O)C3CCCCC3)c2)s1` [Compound 29, N-((4′-(Dimethylamino)-[1,1′-biphenyl]-4-yl)methyl)-N-(3-(2-methoxythiazol-5-yl)phenyl)cyclohexanecarboxamide], for which the pEC50 was ≥ 5.52.
As for `CN(C)c1ccc(-c2ccc(CN(C(=O)C3CCCCC3)c3cccc(/C=C/c4ccccn4)c3)cc2)cc1` [Compound 27, (E)-N-((4′-(Dimethylamino)-[1,1′-biphenyl]-4-yl)methyl)-N-(3-(2-(pyridin-2-yl)vinyl)phenyl)cyclohexanecarboxamide], the pEC50 was ≥ 5.52.
As for `CN(C)c1ccc(-c2ccc(CN(C(=O)C3CCCCC3)c3cccc(-c4cc(=O)n(C)s4)c3)cc2)cc1` [Compound 44, N-((4′-(Dimethylamino)-[1,1′-biphenyl]-4-yl)methyl)-N-(3-(2-methyl-3-oxo-2,3-dihydroisothiazol-5-yl)phenyl)cyclohexanecarboxamide], the pEC50 was ≥ 5.52.
As for `COc1ccc(-c2cccc(N(Cc3ccc(-c4ccc(N(C)C)cc4)cc3)C(=O)C3CCCCC3)c2)s1` [Compound 31, N-((4′-(Dimethylamino)-[1,1′-biphenyl]-4-yl)methyl)-N-(3-(5-methoxythiophen-2-yl)phenyl)cyclohexanecarboxamide], the pEC50 is ≥ 5.52.
For the compound `COc1ccc([C@H]2CC[C@H](CN(c3cccc(N4CC(OC)C4)c3)C(=O)[C@H]3CC[C@H](O)CC3)CC2)cc1C` [Compound 45, trans-4-Hydroxy-N-((trans-4-(4-methoxy-3-methylphenyl)cyclohexyl)methyl)-N-(3-(3-methoxyazetidin-1-yl)phenyl)cyclohexanecarboxamide], the pEC50 is ≥ 5.52.
In the case of `CN(C)c1ccc(-c2ccc(CN(C(=O)C3CCCCC3)c3cccc(-c4cccnc4)c3)cc2)cc1` [Compound 23, N-((4′-(Dimethylamino)-[1,1′-biphenyl]-4-yl)methyl)-N-(3-(pyridin-3-yl)phenyl)cyclohexanecarboxamide], the pEC50 was 5.00 to 5.52.
`COc1cc(-c2cccc(N(Cc3ccc(-c4ccc(N(C)C)cc4)cc3)C(=O)C3CCCCC3)c2)ncn1` [Compound 35, N-((4′-(Dimethylamino)-[1,1′-biphenyl]-4-yl)methyl)-N-(3-(6-methoxypyrimidin-4-yl)phenyl)cyclohexanecarboxamide]: the pEC50 was ≥ 5.52.
`Cc1cncc(-c2cccc(N(Cc3ccc(-c4ccc(N(C)C)cc4)cc3)C(=O)C3CCCCC3)c2)c1` [Compound 24, N-((4′-(Dimethylamino)-[1,1′-biphenyl]-4-yl)methyl)-N-(3-(5-methylpyridin-3-yl)phenyl)cyclohexanecarboxamide] showed a negative-log EC50 (pEC50) of 5.00 to 5.52.
